Data reported in US20170029436A1, “NEOSORAPHENS” (Helmoltz-Zentrum für Infektionsforschung GmbH, priority 2014, published 2017).
pEC50: −log10 of the molar value.

Key:
[1] = CytoTox-Glo cytotoxicity (viability) assay; assay type: cell-based; settings: human, Huh7/Scr cells, read-out: CC50 (half maximal cytotoxic concentration)
Method: (§1) To assess the inhibitory effects of Neosoraphens on HCV infection, a HCV cell-culture (HCVcc) system^[1-3] was used. Unless otherwise stated, Huh7/Scr cells (provided by F. Chisari, The Scripps Research Institute, La Jolla, Calif.) which are highly permissive for HCV propagation in vitro were employed. The experiments were performed in the context of genotype 2a (Jc1 chimera^[4]) HCVcc virus. To facilitate the quantification of infection, the bicistronic Jc1 luciferase reporter construct, designated Luc-Jc1^[5], was used. The commercial ACC inhibitor 5-(Tetradecyloxy)-2-furoic acid (TOFA), which has been previously described to inhibit HCV replication^[6], was chosen for comparison of the antiviral activities of the Neosoraphens. The NS3-4A serine protease inhibitor VX-950^[7], a known HCV replication inhibitor, was used as positive control. Briefly, Huh7/Scr cells were seeded at a density of 1.2×10^4 cells/well in 96-well plates. One day later cells were pre-incubated for 1 h at 37° C. with the compounds and then inoculated with the virus and the compounds for 4 h at 37° C. Finally, virus-containing media was replaced by a fresh media-compounds mix. Firefly luciferase activities were assayed 72 h post infection with the Dual-Glo® Luciferase Assay System while cytotoxicity (viability) assays were carried out with the CytoTox-Glo™ Cytotoxicity Assay (both purchased from Promega Corporation, Madison, Wis.), according to manufacturer's instructions, using a plate luminometer FLUOstar OPTIMA (BMG LABTECH, Ortenberg, Germany). Mean relative light units (RLU) were plotted as percentage relative to control infections (solvent without compounds) for both infectivity and cell viability. Infections were carried out in triplicates and measured in duplicates (mean±SEM; n=6). Half maximal effective concentration (EC50) and half maximal cytotoxic concentration 50 (CC50) were estimated by non-linear regression of log inhibitor vs. normalized response and used to calculate the Selectivity Index (SI) value.

[2] = tested on: genotype 2a (Jc1 chimera) HCVcc virus; assay: HCV cell-culture (HCVcc) infection assay, Luc-Jc1 luciferase reporter in Huh7/Scr cells; assay type: cell-based; settings: for pEC50: Hepatitis C virus, Huh-7, 72 h, read-out: EC50 (antiviral activity, HCV infection); for SI (Selectivity Index): calculated from EC50 and CC50
Method: as §1

[3] = tested on: Naive mouse CD4+ T cells under Th17 conditions; assay: In vitro Th17 differentiation of naive CD4+ T cells (IL-17A+ cells by flow cytometry); assay type: cell-based; settings: 4 days under Th17 conditions, FIG. 1A; for percentage of IL-17A producing T-cells (inhibition of Th17 differentiation): varying concentrations
Method: (§2) Single cell suspensions were prepared and pooled from the spleen, mesenteric and peripheral lymph nodes of adult C57BL/6 mice by filtering the crushed organs through a 70 μm cell-strainer. Naïve CD4+CD25^−CD62L+ T cells were subsequently isolated from these suspensions using the CD4+CD25^−CD62L+ T cell isolation Kit II and AutoMACS according to the manufacturer's protocol (Miltenyi Biotec) or by FACS sorting. Purified T cells were cultured under classic Th17 inducing conditions (Bettelli et al., Nature 441(7090): 235-8 (2006)). In detail, the cells were cultured in 96 well flat bottom plates (3×10^5 cells per well), that were precoated with 10 μg/ml anti-CD3 Antibody (clone 145-2C11, BioXcell) in the presence of antibodies against CD28 (1 μg/ml, clone 37.51, BioXcell), IFN-γ (5 μg/ml, clone XMG1.2, BioXcell) and IL-4 (5 μg/ml, clone 11B11, BioXcell) as well as in the presence of TGFβ1 (2 ng/ml, R&D), IL-6 (5 ng/ml, R&D) and IL-1β (50 ng/ml, R&D) in IMDM Medium (supplemented with 10% FCS+500 U PenStrep+50 μM β-Mercaptoethanol). To these cultures, increasing concentrations of ACC Inhibitors Soraphen A or 5-(Tetradecyloxy)-2-furoic acid (TOFA) (both dissolved in DMSO) were added on day 0 and cultured for up to 4 days in an cell culture incubator (37° C. and 5% CO2). As control, cells were cultured in the presence of DMSO only.
(§3) Were indicated, cells from Th17 cultures were restimulated with 100 ng/ml phorbol 12-myristate 13-acetate (Sigma) and 1 μg/ml Inonomycin (Sigma) for 4 h and Brefeldin A (1:1000, Sigma) was added for the last 2 h of restimulation. After restimulation, cells were harvested for flow cytometry. For surface staining: fluorophore-labelled mAbs aginst CD3ε and CD4 were obtained from eBiosciences. For intracellular staining, cells were fixed with Fix/Perm (eBioscience) according to the manufacturer's protocol, and stained intracellular with fluorophore-labelled mAbs directed against IL-17A and Foxp3 (eBiosciences). Cells were run on a flow cytometer (CyAn, Beckman Coulter) and data was analysed on FlowJo (TreeStar) software.
(§4) To isolate naive CD4+CD25^−CD62L+ T cells by FACS-sorting, lymphocyte suspensions were surface-stained with fluorophore-labelled mAbs aginst CD4, CD25 and CD62L (all from ebioscience) and live CD4+CD25^−CD62L+ T cells were sorted to >98% purity using a Moflo (Beckman Coulter) or FACS ARIAII (BD Biosciences) cell sorter.
(§5) Naive mouse CD4^+ T cells were cultured for 4 days under Th17 conditions in the presence of varying concentrations of the compounds of the invention. As control, cells were cultured in the presence of DMSO only (negative control) or ACC inhibitor Soraphen A (positive control). After 4 days, cells were restimulated with PMA/Ionomycin for 4 h and Brefeldin A for 2 h and further analysed by flow cytometry.

[4] = tested on: Naive mouse CD4+ T cells under Th17 conditions; assay: Induction of Foxp3+ Treg differentiation in Th17 cultures (flow cytometry); assay type: cell-based; settings: 4 days under Th17 conditions, varying concentrations, FIG. 1B
Method: as §2, §3, §4, §5

rotavirus (RV) = settings: Gaunt et al., J Gen Virol 2013; cited from earlier work

Row | SMILES | CC50 at 72 h [1] [µM] | pEC50 [2] | SI (Selectivity Index) [2] | percentage of IL-17A producing T-cells (inhibition of Th17 differentiation) [3] | differentiation of Foxp3+ Treg cells [4] | pEC50 ([3]; read-out: EC50 for decrease of IL-17A producing T-cells) | reduction of infectivity of progeny rotavirus (rotavirus (RV)) [fold] | reduction of viral RNA production (rotavirus (RV)) [fold]
1 | COC1CCCCC(c2ccccc2)OC(=O)CC2(O)CC(O)C(C)C(O2)C(C)/C=C/C1O (stereo not shown) [Neosoraphen M462] | 13.6 | 8.11 | 1752 | Inhibition of Th17 | induction of Treg differentiation | – | – | –
2 | COC1CCCCC(c2ccccc2)OC(=O)CC2(O)CC(O)C(C)C(O2)C(C)CCC1O (stereo not shown) [Neosoraphen M464] | 52.2 | 7.34 | 1136 | Inhibition of Th17 | induction of Treg differentiation | – | – | –
3 | COC1/C=C/C(C)C2OC(O)(CC(=O)OC(c3ccccc3)CCCCC1OC)CC(O)C2C (stereo not shown) [Neosoraphen M476] | 199 | 8.68 | 95072 | Inhibition of Th17 | induction of Treg differentiation | – | – | –
4 | COC1CCCCC(c2ccccc2)OC(=O)CC2(O)CC(O)C(C)C(O2)C(C)CCC1OC (stereo not shown) [Neosoraphen M478] | 98.7 | 8.82 | 64961 | Inhibition of Th17 | induction of Treg differentiation | – | – | –
5 | COC1CCCCC(c2ccccc2)OC(=O)CC2(O)CC(O)C(C)C(O2)C(C)C(O)CC1O (stereo not shown) [Neosoraphen M480] | 45.5 | 7.18 | 693 | – | – | – | – | –
6 | CO[C@H]1CCCC[C@@H](c2ccccc2)OC(=O)[C@@H](C)[C@@]2(O)O[C@H]([C@@H](C)[C@H](O)[C@H]2OC)[C@@H](C)/C=C/[C@H]1OC [Soraphen A, reference compound] | – | – | – | decreases the percentage of IL-17A producing T-cells in a dose dependent manner | induces the reciprocal differentiation of Foxp3+ Treg cells | 7.40 | – | –
7 | CCCCCCCCCCCCCCOc1ccc(C(=O)O)o1 [TOFA, 5-(Tetradecyloxy)-2-furoic acid, reference compound] | 33.9 | 6.00 | 34 | – | – | – | 31 | 6
8 | CCC[C@H](NC(=O)[C@@H]1[C@H]2CCC[C@H]2CN1C(=O)[C@@H](NC(=O)[C@@H](NC(=O)c1cnccn1)C1CCCCC1)C(C)(C)C)C(=O)C(=O)NC1CC1 [VX-950, reference compound] | 94.5 | 7.72 | 4995 | – | – | – | – | –
